Columns and labels:
Test in all cases: relative viability (nuclei count vs DMSO), 5 days (fraction); higher = more cells survive
[1] = compound: CCn1c(-c2nonc2N)nc2c(C#CC(C)(C)O)ncc(OC[C@H]3CCCNC3)c21 + COc1cc2c(Oc3ccc(NC(=O)C4(C(=O)Nc5ccc(F)cc5)CC4)cc3F)ccnc2cc1OCCCN1CCOCC1 [Foretinib] (partner 0.25 µM)
Outline: (§1)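 Five library-drug doses in √10 steps were combined with a fixed anchor-drug dose, or a single drug was given alone, by pin tool to lung cancer cell lines in 1536-well plates the day after seeding. Nuclei were stained and counted after 5 days. Relative viability is the nuclei count in treated wells over that in vehicle wells, taken as the median of duplicate plates.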

[2] = compound: CCn1c(-c2nonc2N)nc2c(C#CC(C)(C)O)ncc(OC[C@H]3CCCNC3)c21 + N=C(N)NC(=N)NCCc1ccccc1 [Phenformin] (partner 250 µM)
Outline: as §1

BAM7 + Dasatinib = compound: CCOC1=CC=CC=C1N=NC2=C(NN(C2=O)C3=NC(=CS3)C4=CC=CC=C4)C [BAM7] + Cc1nc(Nc2ncc(C(=O)Nc3c(C)cccc3Cl)s2)cc(N2CCN(CCO)CC2)n1 [Dasatinib] (partner 0.075 µM)
Outline: as §1

BAM7 + Alpelisib = compound: CCOC1=CC=CC=C1N=NC2=C(NN(C2=O)C3=NC(=CS3)C4=CC=CC=C4)C [BAM7] + Cc1nc(NC(=O)N2CCC[C@H]2C(N)=O)sc1-c1ccnc(C(C)(C)C(F)(F)F)c1 [Alpelisib] (partner 2 µM)
Outline: as §1

Row | Cell Line | relative viability ([1]; first compound 0.01 µM) | relative viability ([1]; first compound 0.03162 µM) | relative viability ([1]; first compound 0.1 µM) | relative viability ([1]; first compound 0.3162 µM) | relative viability ([1]; first compound 1 µM) | relative viability ([2]; first compound 0.01 µM) | relative viability ([2]; first compound 0.03162 µM) | relative viability ([2]; first compound 0.1 µM) | relative viability ([2]; first compound 0.3162 µM) | relative viability ([2]; first compound 1 µM) | relative viability (BAM7 + Dasatinib; first compound 0.5 µM) | relative viability (BAM7 + Dasatinib; first compound 5 µM) | relative viability (BAM7 + Dasatinib; first compound 15.81 µM) | relative viability (BAM7 + Dasatinib; first compound 50 µM) | relative viability (BAM7 + Alpelisib; first compound 0.5 µM) | relative viability (BAM7 + Alpelisib; first compound 5 µM) | relative viability (BAM7 + Alpelisib; first compound 15.81 µM) | relative viability (BAM7 + Alpelisib; first compound 50 µM)
1 | NCI-H1793 | 0.733 | 0.614 | 0.632 | 0.55 | 0.554 | 0.339 | 0.436 | 0.371 | 0.331 | 0.401 | 0.375 | 0.424 | 0.431 | 0.388 | 0.752 | 0.892 | 0.541 | 0.675
2 | NCI-H1915 | 1.11 | 1.1 | 1.08 | 1.01 | 1 | 0.384 | 0.385 | 0.36 | 0.357 | 0.36 | 0.321 | 0.327 | 0.279 | 0.303 | 1.08 | 1.11 | 1.03 | 1.05
3 | NCI-H1944 | 0.755 | 0.888 | 0.821 | 0.851 | 0.876 | 0.196 | 0.196 | 0.207 | 0.181 | 0.196 | 0.217 | 0.234 | 0.225 | 0.279 | 0.875 | 0.902 | 0.661 | 0.81
4 | NCI-H1975 | 0.983 | 1.04 | 0.937 | 0.95 | 0.885 | 0.4 | 0.394 | 0.393 | 0.389 | 0.352 | 0.309 | 0.341 | 0.3 | 0.296 | 0.539 | 0.508 | – | 0.548
5 | NCI-H1993 | 0.693 | 0.835 | 0.785 | 0.733 | 0.714 | 0.485 | 0.47 | 0.5 | 0.478 | 0.495 | 0.492 | 0.541 | 0.502 | 0.575 | 0.766 | 0.689 | 0.585 | 0.629
6 | NCI-H2009 | 1.22 | 1.21 | 1.31 | 1.22 | 1.22 | 0.473 | 0.491 | 0.519 | 0.458 | 0.452 | 0.291 | 0.283 | 0.265 | 0.275 | 1.21 | 1.15 | 1.1 | 1.15
7 | NCI-H2023 | 0.775 | 0.887 | 0.801 | 0.781 | 0.755 | 0.4 | 0.409 | 0.412 | 0.3 | 0.34 | 0.519 | 0.465 | 0.393 | 0.481 | 0.639 | 0.507 | 0.502 | 0.485
8 | NCI-H2085 | 0.857 | 0.901 | 0.985 | 0.994 | 0.881 | 0.627 | 0.694 | 0.674 | 0.706 | 0.719 | 0.237 | 0.211 | 0.229 | 0.217 | 0.957 | 1.07 | 0.834 | 0.981
9 | NCI-H2087 | 0.927 | 1.06 | 1.15 | 0.981 | 1.03 | 0.454 | 0.572 | 0.478 | 0.43 | 0.465 | 0.939 | 0.991 | 0.765 | 0.844 | 1.17 | 1.15 | 0.917 | 0.985
10 | NCI-H2126 | 1.1 | 1.16 | 1.25 | 1.11 | 1.2 | 0.565 | 0.498 | 0.513 | 0.496 | 0.478 | 0.584 | 0.484 | 0.436 | 0.526 | 0.703 | 0.677 | 0.606 | 0.704
11 | NCI-H2170 | 0.987 | 1.01 | 0.972 | 0.996 | 1.07 | 0.44 | 0.429 | 0.416 | 0.429 | 0.382 | 0.644 | 0.683 | 0.731 | 0.777 | 0.631 | 0.603 | 0.537 | 0.672
12 | NCI-H2228 | 0.762 | 0.985 | 0.767 | 0.555 | 0.872 | 0.363 | 0.36 | 0.298 | 0.277 | 0.204 | 0.598 | 0.639 | 0.509 | 0.521 | 0.863 | 0.879 | 0.763 | 0.607
13 | NCI-H2347 | 0.836 | 0.841 | – | 0.798 | 0.676 | 0.442 | 0.307 | – | 0.381 | 0.396 | 0.303 | 0.345 | – | 0.339 | 1.03 | 1.23 | 1.04 | 0.985
14 | NCI-H2405 | 1.06 | 1.05 | 0.948 | 1.03 | 1.05 | 0.402 | 0.385 | 0.295 | 0.355 | 0.344 | 0.195 | 0.201 | 0.211 | 0.243 | 0.862 | 0.773 | 0.684 | 0.839
15 | NCI-H3122 | 0.923 | 0.941 | 0.962 | 1 | 0.883 | 0.401 | 0.364 | 0.447 | 0.389 | 0.374 | 0.438 | 0.835 | 0.838 | 0.725 | 0.881 | 0.822 | 0.804 | 0.763
16 | PC-3 [JPC-3] | 0.982 | 1.04 | 1.12 | 0.902 | 1.08 | 0.504 | 0.451 | 0.469 | 0.463 | 0.474 | 1.04 | 0.91 | 1.02 | 0.946 | 1.02 | 0.99 | 0.876 | 0.907
17 | PC-14 | 0.933 | 1.02 | 1.02 | 0.894 | 1 | 0.448 | 0.519 | 0.597 | 0.531 | 0.609 | 0.229 | 0.211 | 0.228 | 0.295 | 0.983 | 0.841 | 0.915 | 0.906
18 | RERF-LC-KJ | 0.858 | 0.821 | 0.921 | 0.767 | 0.973 | 0.391 | 0.408 | 0.438 | 0.356 | 0.416 | 0.639 | 0.539 | 0.323 | 0.358 | 0.814 | 0.823 | 0.716 | 0.766
